Data taken from a melting point compilation (Tetko et al.; mined from patent text by program, amines drawn as free bases though some values may be those of a salt).

SMILES | melting point [°C]
CCCCCCCCc1ccc(OCC(=O)Cn2ccc3cc(C(=O)O)ccc32)cc1 | 122 to 124
c1ccc(-c2c[nH]c3ccccc23)cc1 | 148 to 149
O=C(c1ccc(Cl)cc1)c1ccc(CSC(F)(F)F)cc1 | 63 to 65
CCCCCCCCCCCCCCCCCCCC(=O)Nc1ccc(NC(=O)NS(=O)(=O)c2ccc3ccccc3c2)cc1 | 179
O=C(CCCN1CCC2(CC(O)c3cc(F)ccc32)C1)c1ccc(F)cc1 (stereo not drawn) | 143 to 145
CCOc1c(OC)cc([N+](=O)[O-])c2ncccc12 | 88 to 95
COc1c(S(N)(=O)=O)cc(C(=O)O)c2c1OCCO2 | 247 to 248
Cc1cc(C)c(Nc2nc(C)ccc2S(=O)(=O)c2ccc(OCc3ccccc3[N+](=O)[O-])cc2)c(C)c1 | 153 to 155
CC(C)(C)NNC(=O)c1cccc(Cl)c1 | 116 to 118
CC(C)c1cccc(C(C)C)c1NC(=S)C1c2ccccc2COc2ccc(Br)cc21 (stereo not drawn) | 190 to 191
CCN(C(=O)N1CCN(c2cc(OC)cc(OC)c2)CC1)c1cc2ccccc2nc1OC | 118 to 120
CCCC[C@]1(CC)CS(=O)(=O)c2cc(O)c(OC)cc2[C@@H](c2ccccc2)N1 | 165 to 166
CC12CCC(C1)C1(C)Oc3ccc(Br)cc3C21C (stereo not drawn) | 120
Cc1n[nH]c2cc(-c3nn(C(C)c4oc5cccc(F)c5c(=O)c4-c4cccc(F)c4)c4ncnc(N)c34)ccc12 (stereo not drawn) | 156 to 159
Nc1nc(Nc2ccc(S(N)(=O)=O)cc2)sc1C(=O)c1ccc(C(=O)Oc2ccccc2)cc1 | > 300
O=C(O)c1ncn2c1[C@@H]1CCN1C(=O)c1ccccc1-2 | 232
CCCCCCCCCCC(=O)NCc1cccc2c1C(=O)N(C1CCC(=O)NC1=O)C2=O (stereo not drawn) | 138 to 139
CC(C)Nc1cc(-c2nc[nH]n2)nc(Cl)c1-c1c(F)cccc1Cl | 152
Cc1cc2c(cc1-c1cccc(C=O)c1)C(C)(C)CCC2(C)C | 104 to 105
COCc1nc2cccnc2n1Cc1ccc(C(=O)N(C(C)C)C2CCCCC2)cc1OC | 126
O=C(Oc1ccccc1)N1CCC(Oc2ccc(F)cc2)CC1 | 98.5 to 100
CCn1cc(CCC(=O)O)c2ccccc21 | 50
C(=C\c1nc(COc2ccc(Cn3cnnc3)cc2)co1)/c1ccccc1 | 209 to 210
CCCCCS(=O)(=O)NC(=O)CCc1cc(OC(C)C)nn1Cc1ccc(Cl)cc1Cl | 126 to 129
COc1ccc(/C=C/C#N)cc1OC | 93 to 98

SMILES | melting point [°C]
CCCCCCCN(CCCCCSc1nc(-c2ccccc2)c(-c2ccccc2)[nH]1)C(=O)NC | 93 to 96
Cc1ccccc1-c1c(NC(=O)Nc2ccc(F)cc2F)c(=O)oc2cc3c(cc12)CCC3 | 223 to 224
Brc1c[nH]c2ccc(OCc3ccccc3)cc12 | 89 to 92
O=C1C(=Cn2ccnc2)CSc2ccc(Cl)cc21 | 139 to 141
CCS(=O)(=O)Cc1ccc(Oc2ccc(NC(C)=O)cc2)cc1 | 186
CCOC(=O)c1cnc2c(c(C)nc3cc(C)nn32)c1NC | 208 to 210
N#Cc1ccc(COc2ccc(CC(NC(=O)c3cc4ccc(-c5ccc(Cl)cc5)cc4o3)C(=O)O)cc2)cc1 (stereo not drawn) | 204
O=C(O)C1CCc2cccc3c(=O)[nH]c(=O)n1c23 (stereo not drawn) | > 300
COc1ccccc1CNc1ccc2cc(Nc3nnc(C4CC4)o3)ccc2n1 | 199
COc1cc2ncnc(N3CCc4cccc(C)c43)c2cc1OC | 146 to 147
CCC12CCC3=C(CCc4cc(O)ccc43)C1=CCC2=O (stereo not drawn) | 153 to 156
O=C(O)c1cc(C(=O)O)cc(N2C(=O)C=CC2=O)c1 | > 300
Cc1noc(-c2c3cccc(-c4ccc(Cl)cc4Cl)c3nn2C)n1 | 178
CC(=O)Nc1cccc(C(c2cccc(NC(C)=O)c2)(C(F)(F)F)C(F)(F)F)c1 | 309 to 311
O=S(=O)(c1ccc(Cl)cc1)C(c1cc(F)ccc1F)c1cc(N2CCCS2(=O)=O)ncc1Cl (stereo not drawn) | 219 to 221
OCCn1cnc2c(Cl)nc3ccccc3c21 | 185 to 187
CC1(N2Cc3c(N)cccc3C2=O)CCC(=O)NC1=O (stereo not drawn) | 289 to 292
CCN(CCO)Cc1cc(Nc2nc(Nc3cc4c(cc3OC)CCN(CC(=O)N(C)C)CC4)ncc2Cl)ccc1F | 71 to 75
CCCCCc1nc(C)c(C(=O)OCC)n1Cc1ccc2oc(-c3ccccc3-c3nnn[nH]3)c(Br)c2c1 | 103 to 104
O=C(O)CCCCOc1ccccc1C1(c2ccccc2)NC(=O)NC1=O (stereo not drawn) | 231 to 232
CC(C)CN1C(N)=CC(=O)N2CCN=C21 | 230 to 232
CCOC(=O)CNC(=S)NC(=Nc1ccccc1)c1ccccc1 | 151 to 152
Cc1ccc2c3c(ccc2n1)OC[C@H](CN1CCN(c2ccc(C)c(C)c2)CC1)O3 | 118 to 120
CC1(C)COC(c2ccc3c(c2)COC3=O)=N1 | 109 to 111
CCCCSN(C)C(=O)Nc1ccc(Cl)c(Cl)c1 | 47

SMILES | melting point [°C]
CNc1nc(NS(=O)(=O)c2ccc(N)cc2)cc(N2CCC2)n1 | 295 to 296
Cc1cn(Nc2ccncc2F)c2ccccc12 | 45
CC(C)(C)C(=O)Oc1ccc(C(=O)c2ccc(OC(=O)C(C)(C)C)cc2OC(=O)C(C)(C)C)c(OC(=O)C(C)(C)C)c1 | 154 to 156
Cc1c(F)c(N2CCC(N)C2)c(C)c2c1c(=O)c(C(=O)O)cn2C1CC1 (stereo not drawn) | 96 to 98
NS(=O)(=O)OCCOc1ccc(Cl)cc1 | 117 to 119
CCOC(CBr)(OCC)C(=O)CBr | 40 to 41.5
CC(C)Oc1ccccc1C1(CC(=O)O)C(=O)Nc2ccc(Cl)cc21 (stereo not drawn) | 146 to 148
CN(C)C1(C#N)CCC(c2ccccc2)(N(C)C)CC1 (stereo not drawn) | 82 to 92
CC(=O)Nc1ccc(OCCOc2ncc(Cl)cn2)cc1 | 160
COC(N)C(=O)NC(=O)OCc1ccccc1 (stereo not drawn) | 110 to 112
Fc1nc(F)c(F)c(F)n1 | 104
CCC(OC)c1oc(C)cc(=O)c1OCc1ccccc1 (stereo not drawn) | 63 to 65
N#Cc1cc(C(=O)NNC(=O)c2occ(-c3ccc(Cl)cc3)c2-c2ccc(Cl)cc2)ccc1O | 190 to 191
Cc1nc(C)c(C(=O)c2ccoc2)o1 | 73.5 to 74.5
COc1ccc(NS(=O)(=O)c2cc(C)cc(C(C)(C)C)c2O)cc1 | 130 to 134
CC(C)(C)P1(=O)c2ccccc2CN1c1ccccc1 (stereo not drawn) | 171 to 172
O=C(O)c1ccc(-c2ncc(-c3ccc(F)cc3F)o2)cc1 | 301 to 302
CCC(=O)N(CC)c1cccc(-c2ccc3nnc(NC)n3n2)c1 | 172 to 173
N#CC1=C(C2CCN(C(=O)c3ccccc3)CC2)Nc2n[nH]cc2C1c1cccc2nonc12 (stereo not drawn) | 228
C=C(C)c1cc(S(=O)(=O)c2ccc(N)cc2)cc(N2CCCC2)n1 | 200 to 201
Cc1ccc(C2(n3ccnc3)c3ccccc3C(=O)c3ccccc32)cc1 | 200 to 204
CCCCCC(=O)Nc1ccc2c(c1)c(Cc1ccc(C(=O)O)cc1OC)cn2CC(=O)O | 235 to 240
CNc1ncc2c(-c3cccc(Cl)c3)cc(-c3cccc(C(=O)O)c3)c(OC)c2n1 | 270
COc1ccc(-n2c(=O)cc(OC(C)=O)c3ccccc32)cc1 | 174 to 175
COc1ccccc1[C@H](c1cccc2ccccc12)[C@@](C)(C#N)C(=O)N1CCN(c2cccc(C)c2)CC1 | 104 to 105

SMILES | melting point [°C]
COc1ccc(-n2c(Cn3ccnc3)nc3ccccc32)cc1 | 113 to 114
Cc1ccc(-c2noc(-c3ccc4c(c3)C(C)(C)CCC4(C)C)n2)cc1 | 106 to 109
O=[N+]([O-])c1cc(Cl)cc(CCc2ccccn2)c1O | 97 to 100
CCOC(=O)Nc1nc(-c2ccccc2)c(-c2nc3ccccc3c(=O)n2-c2cccc(C)c2)s1 | 261 to 263
Cc1nc2c(C(F)(F)F)cccc2c(O)c1C(=O)Nc1nccs1 | 267
COc1ccc(Sc2ccc3c(c2)CCC2N(C)C(=O)CCC32C)cc1 (single isomer, unassigned; (+)) | 150 to 151
O=C1C=C[C@H]2N1CCN1C(=O)C[C@H]3CCCC[C@@]321 (relative stereo) | 159 to 162
Cc1ccc(N2CCN(Cc3ccc4c(c3)NC(=O)CO4)CC2)cc1 | 209 to 212
O=C(O)COc1cccc2c1CCc1sc(Sc3ccc([N+](=O)[O-])cc3[N+](=O)[O-])nc1-2 | 223 to 226
COc1ccc(O[C@@H]2CCNC[C@H]2O)c(Br)c1 (relative stereo) | 132 to 135
COC(=O)c1cc2cnc(N3CCC[C@H]3CO)nc2n(Cc2ccc(OC)c(Cl)c2)c1=O | 175 to 176
C[C@H]1CCCC(C)(C)[C@@H]1C(=O)c1cc(F)c(F)c(F)c1 | 56.7
CCCC[C@H](NC(=O)[C@@H](NC(=O)OCc1ccccc1)c1ccccc1)C(=O)CSCc1ccco1 | 144 to 146
NS(=O)(=O)c1cc(C(=O)O)cc(SCc2ccccn2)c1-c1ccccc1 | 83 to 86
COC(=O)c1ccc(C)c(-n2c(C)cc(OCc3ccc(F)cc3CNC(=O)Nc3cc(C(C)(C)C)nn3-c3ccc(O)c(Cl)c3)c(Cl)c2=O)c1 | 197 to 200
CCC(CC)N(O)C(=O)NCCCCCCCCNC(=O)N(O)C(CC)CC | 89 to 90
CCO/C(C)=C(/C#N)C(N)=S | 201 to 204
O=S1(=O)NC(C2CCCCC2)Nc2ccc(-c3ccccc3F)cc21 (stereo not drawn) | 249 to 250
COc1ccc(-c2nnn(-c3ccc(C(F)(F)F)cc3F)c2C)cc1 | 154 to 155
Cn1ccc(-c2ccc(F)cc2)c1-c1ccc(F)cc1 | 129 to 130
CCN(CC)CC1CCCCN1CCCNC(=O)N1c2ccccc2C(=O)Nc2cccnc21 (stereo not drawn) | 160 to 161
CCn1ncnc1COc1nn2c(-c3c(F)cccc3F)nnc2cc1C(C)(C)C | 182
CCOC(=O)C1=CC(=O)C2(C(=O)c3ccc(Cl)cc3)OC2O1 (stereo not drawn) | 100
